“Also recorded” adds a separate entry of the source.
Tests used:
MM.1S cells = assay: Whole-transcriptome RNA-Seq; format: cell-based, human; settings: for differentially expressed genes: 1 μM, 48 hrs, fold-change > 2, FDR-corrected P < 0.01
Experimental: The effect of small molecule treatment on transcriptome-wide RNA expression was evaluated using bulk RNA sequencing of 5 biological replicates per sample. […] 48 hours following treatment, cells were washed with PBS and lysed in RLT buffer (Qiagen) with β-mercaptoethanol. Total RNA from each sample was purified from 2–4×10^5 cells using the RNeasy Mini Kit (Qiagen) with on-column DnaseI digestion and eluted in nuclease-free water. Polyadenylated RNA was sequenced using Smart-seq2 as previously described ([82]) with two changes: 20 ng of total RNA and Maxima Rnase H-minus reverse transcriptase (Thermo Fisher) were used for the initial reverse transcription step. The resulting cDNA libraries were sequenced on an Illumina NextSeq 550 High Output kit with the following run parameters: 37 cycles for read1, 37 cycles for read2, 8 cycles for index1, and 8 cycles for index2.
Sequencing data were demultiplexed with bcl2fastq and roughly 40 million paired-end reads were obtained per sample. Transcript-level quantification was performed using kallisto ([83]) with the homo sapiens GRCh38 reference transcriptome and with bootstrapping. Differential expression analysis at the gene level was conducted using Deseq2 with batch correction of biological replicates ([84]). To pre-filter low count genes, only genes with at least 10 counts in at least 5 samples were analyzed. Compared between conditions, genes with a transcript abundance fold-change > 2 and with a false discovery rate-corrected P-value < 0.01 were called as differentially expressed.

KELLY cells = assay: Global quantitative proteomics, KELLY; format: cell-based, human; settings: 1 µM; for proteins downregulated (in words): 5 hours
Experimental: (§1) Cells were lysed by addition of lysis buffer (8 M Urea, 50 mM NaCl, 50 mM 4-(2-hydroxyethyl)-1-piperazineethanesulfonic acid (EPPS) pH 8.5, Protease and Phosphatase inhibitors) and homogenization by bead beating (BioSpec) for three repeats of 30 seconds at 2400. Bradford assay was used to determine the final protein concentration in the clarified cell lysate. 50 μg of protein for each sample was reduced, alkylated and precipitated using methanol/chloroform as previously described ([32]) and the resulting washed precipitated protein was allowed to air dry. Precipitated protein was resuspended in 4 M Urea, 50 mM HEPES pH 7.4, followed by dilution to <1 M urea with the addition of 200 mM EPPS, pH 8. Proteins were digested with LysC (1:50; enzyme:protein) and trypsin (1:50; enzyme:protein) overnight at 37 °C. Sample digests were acidified with formic acid to a pH of 2-3 prior to desalting using C18 solid phase extraction plates (SOLA, Thermo Fisher Scientific). Desalted peptides were dried in a vacuum centrifuge and reconstituted in 0.1% formic acid for LC-MS analysis.
(§2) Data were collected using a TimsTOF Pro2 (Bruker Daltonics, Bremen, Germany) coupled to a nanoElute LC pump (Bruker Daltonics, Bremen, Germany) via a CaptiveSpray nano-electrospray source. Peptides were separated on a reversed-phase C18 column (25 cm x 75 μm ID, […], IonOpticks, Australia) containing an integrated captive spray emitter. Peptides were separated using a 50 min gradient of 2 – 30% buffer B (acetonitrile in 0.1% formic acid) with a flow rate of 250 nL/min and column temperature maintained at 50 °C.
(§3) DDA was performed in Parallel Accumulation-Serial Fragmentation (PASEF) mode to determine effective ion mobility windows for downstream diaPASEF data collection (Meier et al., 2020). The ddaPASEF parameters included: 100% duty cycle using accumulation and ramp times of 50 ms each, 1 TIMS-MS scan and 10 PASEF ramps per acquisition cycle. The TIMS-MS survey scan was acquired between 100–1700 m/z and 1/k0 of 0.7–1.3 V.s/cm^2. Precursors with 1–5 charges were selected and those that reached an intensity threshold of 20,000 arbitrary units were actively excluded for 0.4 min. The quadrupole isolation width was set to 2 m/z for m/z <700 and 3 m/z for m/z >800, with the m/z between 700–800 m/z being interpolated linearly. The TIMS elution voltages were calibrated linearly with three points (Agilent ESI-L Tuning Mix Ions; 622, 922, 1,222 m/z) to determine the reduced ion mobility coefficients (1/K0). To perform diaPASEF, the precursor distribution in the DDA m/z-ion mobility plane was used to design an acquisition scheme for DIA data collection which included two windows in each 50 ms diaPASEF scan. Data was acquired using sixteen of these 25 Da precursor double window scans (creating 32 windows) which covered the diagonal scan line for doubly and triply charged precursors, with singly charged precursors able to be excluded by their position in the m/z-ion mobility plane. These precursor isolation windows were defined between 400–1200 m/z and 1/k0 of 0.7–1.3 V.s/cm^2.
(§4) The diaPASEF raw file processing and controlling peptide and protein level false discovery rates, assembling proteins from peptides, and protein quantification from peptides was performed using either targeted, cell line specific spectral libraries generated by searching offline fractionated DDApasef data against a Swissprot human or mouse database (January 2021) or using library free analysis in DIA-NN 1.8 ([85]). Library free mode performs an in-silico digestion of a given protein sequence database alongside deep learning-based predictions to extract the DIA precursor data into a collection of MS2 spectra. The search results are then used to generate a spectral library which is then employed for the targeted analysis of the DIA data searched against a Swissprot human or mouse database (January 2021). […]

HEK293T cells = assay: Global quantitative proteomics, HEK293T; format: cell-based, human; settings: 1 µM; for proteins downregulated (in words): 5 hours
Experimental: as §1, §2, §3, §4

Ba/F3 cells = assay: Global quantitative proteomics, Ba/F3; format: cell-based, mouse; settings: 1 µM; for changes to protein expression (in words): pomalidomide 5 hrs, PT-179 5 and 24 hrs
Experimental: as §1, §2, §3
The diaPASEF raw file processing and controlling peptide and protein level false discovery rates, assembling proteins from peptides, and protein quantification from peptides was performed using either targeted, cell line specific spectral libraries generated by searching offline fractionated DDApasef data against a Swissprot human or mouse database (January 2021) or using library free analysis in DIA-NN 1.8 ([85]). Library free mode performs an in-silico digestion of a given protein sequence database alongside deep learning-based predictions to extract the DIA precursor data into a collection of MS2 spectra. The search results are then used to generate a spectral library which is then employed for the targeted analysis of the DIA data searched against a Swissprot human or mouse database (January 2021).

MOLT4 cells = assay: Global quantitative proteomics, MOLT4; format: cell-based, human; settings: 1 µM; for proteins downregulated (in words): 5 hours, threshold ≥ 2-fold at p ≤ 0.0001
Experimental: as §1, §2, §3, §4

O=C1CCC(N2C(=O)c3ccc(N4CCOCC4)cc3C2=O)C(=O)N1 (centres unmarked) [PT-179]
differentially expressed genes (MM.1S cells): three
decrease in the frequency of gene expression perturbation (MM.1S cells; PT-179 vs pomalidomide): 475 fold
proteins downregulated (in words) (KELLY cells): no significant degradation of detected proteins
logFC GLMP (Q8WWB7) (KELLY cells; vs DMSO, 5 hr, KELLY): -1.07E+00
logFC KIAA1958 (Q8N8K9) (KELLY cells; vs DMSO, 5 hr, KELLY): -1.94E+00
logFC SYT14 (Q8NB59) (KELLY cells; vs DMSO, 5 hr, KELLY): -1.10E+00
logFC TIMM8B (Q9Y5J9) (KELLY cells; vs DMSO, 5 hr, KELLY): -1.14E+00
logFC TUB (P50607) (KELLY cells; vs DMSO, 5 hr, KELLY): -1.12E+00
proteins downregulated (in words) (HEK293T cells): did not downregulate any detected proteins
logFC EIF5A (P63241) (HEK293T cells; vs DMSO, 5 hr, HEK293T): 1.52E-01
logFC GAL (P22466) (HEK293T cells; vs DMSO, 5 hr, HEK293T): 8.26E-01
logFC ITPKC (Q96DU7) (HEK293T cells; vs DMSO, 5 hr, HEK293T): 6.63E-01
logFC RBM23 (Q86U06) (HEK293T cells; vs DMSO, 5 hr, HEK293T): 2.25E-01
logFC ROR1 (Q01973) (HEK293T cells; vs DMSO, 5 hr, HEK293T): 8.84E-01
changes to protein expression (in words) (Ba/F3 cells): do not degrade proteins; also recorded: no significant changes to protein expression
logFC Bak1 (O08734) (Ba/F3 cells; vs DMSO, 5 hr, Ba/F3): -1.95E-01
logFC Hspa1l (P16627) (Ba/F3 cells; vs DMSO, 5 hr, Ba/F3): 3.76E-01
logFC Polr2l (P62876) (Ba/F3 cells; vs DMSO, 5 hr, Ba/F3): 5.32E-01
logFC Prkd1 (Q62101) (Ba/F3 cells; vs DMSO, 5 hr, Ba/F3): 5.39E-01
logFC Rpa2 (Q62193) (Ba/F3 cells; vs DMSO, 5 hr, Ba/F3): 1.32E-01
logFC Pigo (Q9JJI6) (Ba/F3 cells; vs DMSO, 24 hr, Ba/F3): -3.94E-01
logFC Ppib (P24369) (Ba/F3 cells; vs DMSO, 24 hr, Ba/F3): 9.71E-02
logFC Prpf38a (Q4FK66) (Ba/F3 cells; vs DMSO, 24 hr, Ba/F3): -1.96E-01
logFC Ube2v1 (Q9CZY3) (Ba/F3 cells; vs DMSO, 24 hr, Ba/F3): 5.05E-01
logFC Uchl4 (P58321) (Ba/F3 cells; vs DMSO, 24 hr, Ba/F3): 1.38E-01
proteins downregulated (in words) (MOLT4 cells): did not significantly downregulate any detected proteins
logFC ACSL1 (P33121) (MOLT4 cells; vs DMSO, 5 hr, MOLT4): -1.03E+00
logFC APOBEC3C (Q9NRW3) (MOLT4 cells; vs DMSO, 5 hr, MOLT4): -8.07E-01
logFC ARAP2 (Q8WZ64) (MOLT4 cells; vs DMSO, 5 hr, MOLT4): -9.22E-01
logFC NXT1 (Q9UKK6) (MOLT4 cells; vs DMSO, 5 hr, MOLT4): -8.48E-01
logFC SNX11 (Q9Y5W9) (MOLT4 cells; vs DMSO, 5 hr, MOLT4): -9.02E-01

Nc1cccc2c1C(=O)N(C1CCC(=O)NC1=O)C2=O (centres unmarked) [pomalidomide, reference compound]
differentially expressed genes (MM.1S cells): 1,426 genes
proteins downregulated (in words) (KELLY cells): robust downregulation of the developmental transcription factor SALL4 ([32]) and ZFP91
logFC DTWD1 (Q8N5C7) (KELLY cells; vs DMSO, 5 hr, KELLY): -1.64E+00
logFC GID8 (Q9NWU2) (KELLY cells; vs DMSO, 5 hr, KELLY): -1.75E+00
logFC RAB28 (P51157) (KELLY cells; vs DMSO, 5 hr, KELLY): -1.53E+00
logFC SALL4 (Q9UJQ4) (KELLY cells; vs DMSO, 5 hr, KELLY): -2.26E+00
logFC SSNA1 (O43805) (KELLY cells; vs DMSO, 5 hr, KELLY): -1.42E+00
proteins downregulated (in words) (HEK293T cells): induced degradation of ZFP91
logFC C3 (P01024) (HEK293T cells; vs DMSO, 5 hr, HEK293T): 7.85E-01
logFC DTWD1 (Q8N5C7) (HEK293T cells; vs DMSO, 5 hr, HEK293T): -1.29E+00
logFC EIF5A (P63241) (HEK293T cells; vs DMSO, 5 hr, HEK293T): 1.83E-01
logFC PKM (P14618) (HEK293T cells; vs DMSO, 5 hr, HEK293T): 1.32E-01
logFC ZFP91 (Q96JP5) (HEK293T cells; vs DMSO, 5 hr, HEK293T): -2.05E+00
changes to protein expression (in words) (Ba/F3 cells): do not degrade proteins
logFC Bola1 (Q9D8S9) (Ba/F3 cells; vs DMSO, 5 hr, Ba/F3): -2.16E-01
logFC Dusp19 (Q8K4T5) (Ba/F3 cells; vs DMSO, 5 hr, Ba/F3): -7.00E-01
logFC Inpp5k (Q8C5L6) (Ba/F3 cells; vs DMSO, 5 hr, Ba/F3): -9.47E-01
logFC Llph (Q9D945) (Ba/F3 cells; vs DMSO, 5 hr, Ba/F3): 2.10E-01
logFC Med8 (Q9D7W5) (Ba/F3 cells; vs DMSO, 5 hr, Ba/F3): -3.40E-01
proteins downregulated (in words) (MOLT4 cells): significant downregulation of the previously identified neosubstrates IKZF1 ([9]) and ZFP91
logFC DYNLT1 (P63172) (MOLT4 cells; vs DMSO, 5 hr, MOLT4): -9.35E-01
logFC IKZF1 (Q13422) (MOLT4 cells; vs DMSO, 5 hr, MOLT4): -2.37E+00
logFC IKZF3 (Q9UKT9) (MOLT4 cells; vs DMSO, 5 hr, MOLT4): -9.56E-01
logFC RAB28 (P51157) (MOLT4 cells; vs DMSO, 5 hr, MOLT4): -1.66E+00
logFC ZFP91 (Q96JP5) (MOLT4 cells; vs DMSO, 5 hr, MOLT4): -1.83E+00

From publication PMC11203266, “Continuous evolution of compact protein degradation tags regulated by selective molecular glues” (Science (New York, N.Y.), 2024)
